According to US20260083122A1, “METHOD AND AGENT FOR INACTIVATING BACTERIA OR VIRUSES, AND ANTIVIRAL BASE MATERIAL USING SAME” (NISSAN MOTOR CO., LTD., priority 2022, published 2026):

Molecular target: S-RBD-His (Omicron) (SARS-CoV-2 B.1.1.529 (Omicron) Spike RBD Protein) (Severe acute respiratory syndrome coronavirus 2, UniProt P0DTC2, E484A/G339D/G446S/G496S/K417N/N440K/N501Y/Q493R/Q498R/S371L/S373P/S375F/S477N/T478K/Y505H)

O=[N+]([O-])[O-].O=[N+]1C2CC3CC(C2)CC1C3 [AZADO-Oxo]
shift of fluorescence peak (binding amount between spike protein and ACE2): a certain inactivation effect was obtained
